These results are taken from US7517889B2, “2,6-substituted-4-monosubstitutedamino-pyrimidine as prostaglandin D2 receptor antagonists” (Aventis Pharmaceuticals, Inc., priority 2004, dated 2009).

Where a name gives a salt, the structure may show the parent alone.

The target in this test is T1, DP receptor (Homo sapiens, UniProt Q13258).
T1 construct: the human cell line LS174T, which expresses the endogenous DP receptor; endogenous in cells; host or cells: LS174T human cell line
T1 sequence (Q13258 1-359): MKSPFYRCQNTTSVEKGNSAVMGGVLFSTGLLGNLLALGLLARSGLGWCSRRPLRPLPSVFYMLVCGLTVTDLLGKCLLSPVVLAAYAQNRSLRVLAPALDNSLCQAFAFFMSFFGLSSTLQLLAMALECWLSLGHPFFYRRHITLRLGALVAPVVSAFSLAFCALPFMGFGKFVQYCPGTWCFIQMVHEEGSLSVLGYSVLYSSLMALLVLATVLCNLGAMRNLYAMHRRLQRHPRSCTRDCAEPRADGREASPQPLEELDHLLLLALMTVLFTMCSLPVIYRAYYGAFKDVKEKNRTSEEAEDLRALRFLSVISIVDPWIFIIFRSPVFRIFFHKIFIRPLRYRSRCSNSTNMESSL
Put plainly: SPA cAMP assay in human LS174 T cells (human DP functional assay). Format: cell-based. Conditions: inhibition of PGD2 (15 nM final) stimulated cAMP, LS174T cells expressing endogenous DP receptor. The method in brief: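 LS174T cells with endogenous DP receptor, 45,000/well seeded overnight, exposed to compounds at 11 points for 15 min at 37 °C in buffer containing IBMX, with PGD2 stimulation.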
Background: Changes in cAMP serve as a functional read-out for many G protein-coupled receptors.
Broadly, the IC50 is the concentration needed to halve the response being measured. Low values mean inhibition by little substance, high ones a need for much substance. Regarding `COc1nc(NCCc2ccc(OC(F)(F)F)cc2)cc(-c2cccc(C3(C(=O)NS(C)(=O)=O)CCOCC3)c2)n1` [Example 84(a), N-[4-(3-{2-Methoxy-6-[2-(4-trifluoromethoxy-phenyl)-ethylamino]-pyrimidin-4-yl}-phenyl)-tetrahydro-pyran-4-carbonyl]-methanesulfonamide], the IC50 came out at 0.0007 µM.
Next, `COC(=O)C1(c2cccc(-c3cc(NCCc4ccc(OC(F)(F)F)cc4)nc(OC)n3)c2)CCOCC1` [Example 84(b), 4-(3-{2-Methoxy-6-[2-(4-trifluoromethoxy-phenyl)-ethylamino]-pyrimidin-4-yl}-phenyl)-tetrahydro-pyran-4-carboxylic acid methyl ester]: 0.07 µM; `COCc1nc(NCCc2ccc(Cl)cc2Cl)cc(-c2cccc(C(C)(C)C(=O)O)c2)n1` [Example 85, 2-(3-{6-[2-(2,4-Dichloro-phenyl)-ethylamino]-2-methoxymethyl-pyrimidin-4-yl}-phenyl)-2-methyl-propionic acid]: 0.0027 µM.
Next, `CC(C)(C(=O)O)c1cccc(-c2cc(NCCc3ccc(Cl)cc3Cl)nc(CO)n2)c1` [Example 86, 2-(3-{6-[2-(2,4-dichloro-phenyl)-ethylamino]-2-hydroxymethyl-pyrimidin-4-yl}-phenyl)-2-methyl-propionic acid]: 0.071 µM; `COc1nc(NCCc2ccc(Cl)cc2Cl)cc(-c2ccc(C(=O)O)s2)n1` [Example 87, 5-{6-[2-(2,4-Dichloro-phenyl)-ethylamino]-2-methoxy-pyrimidin-4-yl}-thiophene-2-carboxylic acid]: 0.00016 µM.
The result for `COc1nc(NCCc2ccc(OC(F)(F)F)cc2)cc(-c2ccc3c(c2)CC(C(=O)O)O3)n1` (stereo not drawn) [Example 88, 5-{2-Methoxy-6-[2-(4-trifluoromethoxy-phenyl)-ethylamino]-pyrimidin-4-yl}-2,3-dihydro-benzofuran-2-carboxylic acid hydrochloride] reads 0.0031 µM; that for `COc1nc(NCCc2ccc(Cl)cc2Cl)cc(-c2cccc(C(C)(C)C(=O)OCC(O)CO)c2)n1` (stereo not drawn) [Example 89, 2-(3-{6-[2-(2,4-Dichloro-phenyl)-ethylamino]-2-methoxy-pyrimidin-4-yl}-phenyl)-2-methyl-propionic acid 2,3-dihydroxy-propyl ester], 0.018 µM.
As to `COc1nc(NCC2OCCc3ccccc32)cc(-c2cccc(C(C)(C)C(=O)O)c2)n1` (stereo not drawn) [Example 91, 2-(3-{6-[(Isochroman-1-ylmethyl)-amino]-2-methoxy-pyrimidin-4-yl}-phenyl)-2-methyl-propionic acid], the IC50 was 0.023 µM.
`COc1nc(NCC2CN(C)c3ccccc3O2)cc(-c2cccc(C(C)(C)C(=O)O)c2)n1` (stereo not drawn) [Example 92, 2-(3-{2-Methoxy-6-[(4-methyl-3,4-dihydro-2H-benzo[1,4]oxazin-2-ylmethyl)-amino]-pyrimidin-4-yl}-phenyl)-2-methyl-propionic acid] had an IC50 of 0.278 µM.
With `COc1nc(NCCc2ccc(Cl)cc2Cl)cc(-c2ccc3nc(NC(C)=O)sc3c2)n1` [Example 94, N-(6-{6-[2-(2,4-Dichloro-phenyl)-ethylamino]-2-methoxy-pyrimidin-4-yl}-benzothiazol-2-yl)-acetamide], the IC50 stood at 0.011 µM. Compared with the last molecule, the IC50 is about 25-fold lower.
`COc1nc(NCCc2ccc(Cl)cc2Cl)cc(-c2cccc(C(C)(C)C(=O)NS(=O)(=O)Cc3ccccc3)c2)n1` [Example 95(b), N-[2-(3-{6-[2-(2,4-Dichloro-phenyl)-ethylamino]-2-methoxy-pyrimidin-4-yl}-phenyl)-2-methyl-propionyl]-C-phenyl-methanesulfonamide] showed an IC50 of 0.002 µM.
`COc1nc(NCCc2ccc(Cl)cc2Cl)cc(-c2cccc(C(C)(C)C(=O)N3CCOCC3)c2)n1` [Example 95(c), 2-(3-{6-[2-(2,4-Dichloro-phenyl)-ethylamino]-2-methoxy-pyrimidin-4-yl}-phenyl)-2-methyl-1-morpholin-4-yl-propan-1-one]: half-maximal inhibition (IC50) was put at 0.281 µM.
Molecule `COc1nc(NCCc2ccc(Cl)cc2Cl)cc(-c2cccc(C(C)(C)C(=O)NC3CCOCC3)c2)n1` [Example 95(d), 2-(3-{6-[2-(2,4-Dichloro-phenyl)-ethylamino]-2-methoxy-pyrimidin-4-yl}-phenyl)-N-(tetrahydro-pyran-4-yl)-isobutyramide] registered an IC50 of 0.278 µM.
In the case of `COc1nc(NCCc2ccc(Cl)cc2Cl)cc(-c2cccc(C(C)(C)C(=O)Nc3nnn[nH]3)c2)n1` [Example 95(e), 2-(3-{6-[2-(2,4-Dichloro-phenyl)-ethylamino]-2-methoxy-pyrimidin-4-yl}-phenyl)-N-(1H-tetrazol-5-yl)-isobutyramide], the IC50 was less than 0.001 µM.
`COc1nc(NCCc2ccc(Cl)cc2Cl)cc(N2CCCC(c3nn[nH]n3)C2)n1` (stereo not drawn) [Example 96, [2-(2,4-Dichloro-phenyl)-ethyl]-{2-methoxy-6-[3-(2H-tetrazol-5-yl)-piperidin-1-yl]-pyrimidin-4-yl}-amine] displayed an IC50 of 0.005 µM.
Next, `COc1nc(NCCc2ccc(Cl)cc2Cl)cc(N2CCC(C(=O)O)CC2)n1` [Example 97, 1-{6-[2-(2,4-Dichloro-phenyl)-ethylamino]-2-methoxy-pyrimidin-4-yl}-piperidine-4-carboxylic acid]: 0.007 µM.
With `COc1nc(NCCc2ccc(Cl)cc2Cl)cc(-c2ccc(Cl)c(C(C)(C)O)c2)n1` [Example 98, 2-(2-Chloro-5-{6-[2-(2,4-dichloro-phenyl)-ethylamino]-2-methoxy-pyrimidin-4-yl}-phenyl)-propan-2-ol], the midpoint of inhibition, the IC50, lay at 0.11 µM.
Turning to `COc1nc(NCCc2ccc(Cl)cc2Cl)cc(-c2cc(C(C)(C)C(=O)O)ccc2F)n1` [Example 99, 2-(3-{6-[2-(2,4-Dichloro-phenyl)-ethylamino]-2-methoxy-pyrimidin-4-yl}-4-fluoro-phenyl)-2-methyl-propionic acid hydrochloride], half-maximal inhibition (IC50) required 0.0005 µM.
The molecule `COc1ccc(CCNc2cc(OCc3ccccc3OC)nc(OC)n2)cc1` [Example (48), [2-Methoxy-6-(2-methoxy-benzyloxy)-pyrimidin-4-yl]-[2-(4-methoxy-phenyl)-ethyl]-amine hydrochloride] registered an IC50 of 0.012 µM.
`COC(=O)c1cccc(Oc2cc(NCCc3ccc(OC)c(OC)c3)nc(OC)n2)c1` [Example (63), 3-{6-[2-(3,4-dimethoxy-phenyl)-ethylamino]-2-methoxy-pyrimidin-4-yloxy}-benzoic acid methyl ester] displayed an IC50 of 6.25 µM. This IC50 lies about 520-fold higher than the previous one.
Take `COc1nc(NCCc2ccc(OC(F)F)cc2)cc(-c2cccc(S(C)(=O)=O)c2)n1` [example 46(d), [2-(4-Difluoromethoxy-phenyl)-ethyl]-[6-(3-methanesulfonyl-phenyl)-2-methoxy-pyrimidin-4-yl]-amine hydrochloride]: the IC50 turned out to be 0.017 µM.
